Where “and” joins values, the source holds several entries; their conditions need not be identical. Equal entries are not always repeated. Structures can show the parent of a compound that is named as a salt. Where two headings read alike, the source gives them in different places.
Legend:
A549-ACE2 cells = experiment: cells; assay type: cell-based; conditions: for activation at 10 µM: A549-ACE2, 24 h, read-out: PLD_Effect(%) A549-ACE2
Vero-E6 cells = experiment: cells; assay type: cell-based
[1] = cited from earlier work; for pchembl_value (IC50) / pchembl_value (Ki): value is the negative log10 of mol/L
SARS-CoV-2 = conditions: 10 µM; cited from earlier work
[2] = Chlorocebus sabaeus, Vero C1008, 24 h, read-out: PLD_Effect(%) VERO-E6
[3] = Chlorocebus sabaeus, Vero C1008, read-out: PLD EC50 µM

Question: Which results are given for O=C(NCCN1CCC2(CC1)C(=O)NCN2c1cccc(F)c1)c1ccc(F)c(F)c1 [ML-298]?
Answer: activation at 10 µM (A549-ACE2 cells): 97%; activation at 10 µM (Vero-E6 cells; [2]): 60.1%

Question: What does the source list for COc1ccc2[nH]c3c(-c4cccc5ccccc45)nccc3c2c1 [SP-141, reference compound]?
Answer: result_KI (A549-ACE2 cells): -11.253 percent effect; result_ITMP (Vero-E6 cells): 16.13 percent effect

Question: For Nc1nc2c(c(N3CCNCC3)n1)CCC1=C2[C@@H]2CCCC[C@@H]2O1 [A-987306], which “pKi (value)” value [1] is on record?
Answer: The value was 7.1.

Question: What about the “pchembl_value (pKi)” value [1] of the same compound?
Answer: Its value is 7.10.

Question: And the “pchembl_value (IC50)” value [1]?
Answer: The value was 8.41 and 10.06 and 8.24.

Question: And the activation at 10 µM (A549-ACE2 cells)?
Answer: Its activation at 10 µM is 52.2%.

Question: What about the activation at 10 µM (Vero-E6 cells; [2]) of the same compound?
Answer: Its activation at 10 µM is 70.7%.

Question: Which “Log IC50 (value)” value [1] does the source give for OCCN1CCN(CC/C=C2/c3ccccc3Sc3ccc(C(F)(F)F)cc32)CC1 [Flupentixol] here?
Answer: Its value is -8.65.

Question: And the “pchembl_value (Log IC50)” value [1]?
Answer: Its value is 8.65.

Question: What about the activation at 10 µM (A549-ACE2 cells) of the same compound?
Answer: The activation at 10 µM was 81.9%.

Question: And the activation at 10 µM (Vero-E6 cells; [2])?
Answer: The activation at 10 µM was 83.6%.

Question: Which “pchembl_value (AC50)” value [1] does the source give for Clc1ccc(C(OCCN2CCCCC2)c2ccccc2)cc1 (stereo not shown) [CLOPERASTINE HYDROCHLORIDE] here?
Answer: The value was 6.48.

Question: And the AC50 ([1]; read-out: AC50 (value))?
Answer: Its AC50 is 331 nM.

Question: What about the activation at 10 µM (A549-ACE2 cells) of the same compound?
Answer: Its activation at 10 µM is 72.5%.

Question: And the activation at 10 µM (Vero-E6 cells; [2])?
Answer: The activation at 10 µM was 63.9%.

Question: With CCN(CC)CCCC(C)Nc1c2ccc(Cl)cc2nc2ccc(OC)cc12 (stereo not shown) [quinacrine hydrochloride, reference compound] as the compound, how does the activation at 5 µM (Vero-E6 cells; Chlorocebus sabaeus, Vero C1008, 24 h; read-out: PLD Effect in % 5 µM) read?
Answer: The activation at 5 µM was 145%.

Question: What about the activation at 10 µM (Vero-E6 cells; Chlorocebus sabaeus, Vero C1008, 24 h; read-out: PLD Effect in % 10 µM) of the same compound?
Answer: The activation at 10 µM was 141%.

Question: And the activation at 20 µM (Vero-E6 cells; Chlorocebus sabaeus, Vero C1008, 24 h; read-out: PLD Effect in % 20 µM)?
Answer: The activation at 20 µM was -13.2%.

Question: And the EC50 (Vero-E6 cells; [3])?
Answer: Its EC50 is 1.55 µM.

Question: What about the “Vero-E6 CPE inhibition %” value (SARS-CoV-2) of the same compound?
Answer: Its value is -0.23%.

Question: With COc1cc2c(cc1O)C(CCc1ccc(Cl)cc1)N(C)CC2 (stereo not shown) [Ro-04-5595] as the compound, how does the activation at 10 µM (A549-ACE2 cells) read?
Answer: Its activation at 10 µM is 61%.

Question: What about the activation at 10 µM (Vero-E6 cells; [2]) of the same compound?
Answer: The activation at 10 µM was 64%.

Question: With CN1C2CCC1CC(OC(c1ccc(F)cc1)c1ccc(F)cc1)C2 (stereo not shown) as the compound, how does the “Log 1/Ki (value)” value [1] read?
Answer: Its value is 7.86.

Question: What about the “pchembl_value (Log 1/Ki)” value [1] of the same compound?
Answer: Its value is 7.86.

Question: And the “pchembl_value (Ki)” value [1]?
Answer: Its value is 6.84 and 6.07 and 7.94.

Question: And the activation at 10 µM (A549-ACE2 cells)?
Answer: The activation at 10 µM was 76.3%.

Question: What about the activation at 10 µM (Vero-E6 cells; [2]) of the same compound?
Answer: The activation at 10 µM was 61.5%.

Question: Which “Log IC50 (value)” value [1] does the source give for C[C@@H]1CN(CCCn2c3ccccc3c3ccccc32)C[C@H](C)N1 [rimcazole] here?
Answer: Its value is -6.23.

Question: What about the “pchembl_value (Log IC50)” value [1] of the same compound?
Answer: The value was 6.23.

Question: What about the Ki ([1]; read-out: Ki (value)) of the same compound?
Answer: The Ki was 908 nM.

Question: And the “pchembl_value (Ki)” value [1]?
Answer: Its value is 6.04.

Question: What about the activation at 10 µM (A549-ACE2 cells) of the same compound?
Answer: Its activation at 10 µM is 109%.

Question: And the activation at 10 µM (Vero-E6 cells; [2])?
Answer: The activation at 10 µM was 99.9%.

Question: For OC(c1cc(C(F)(F)F)nc2c(C(F)(F)F)cccc12)C1CCCCN1 (stereo not shown) [mefloquine hydrochloride, reference compound], which activation at 5 µM (Vero-E6 cells; Chlorocebus sabaeus, Vero C1008, 24 h, read-out: PLD Effect in % 5 µM) is on record?
Answer: Its activation at 5 µM is 102%.

Question: What about the activation at 10 µM (Vero-E6 cells; Chlorocebus sabaeus, Vero C1008, 24 h, read-out: PLD Effect in % 10 µM) of the same compound?
Answer: Its activation at 10 µM is 188%.

Question: And the activation at 20 µM (Vero-E6 cells; Chlorocebus sabaeus, Vero C1008, 24 h, read-out: PLD Effect in % 20 µM)?
Answer: Its activation at 20 µM is 174%.

Question: And the EC50 (Vero-E6 cells; [3])?
Answer: Its EC50 is 1.48 µM.

Question: And the “Vero-E6 CPE inhibition %” value (SARS-CoV-2)?
Answer: Its value is -0.32%.

Question: What does the source list for CCn1c2ccccc2c2cc(CNCc3ccccc3OC)ccc21 [HLCL-61 (hydrochloride)]?
Answer: activation at 10 µM (A549-ACE2 cells): 83%; activation at 10 µM (Vero-E6 cells; [2]): 56.5%

Question: For CCN(CCCc1ccccc1)CCCc1ccccc1 [ALVERINE CITRATE], which AC50 [1] is on record?
Answer: The AC50 was 29 nM.

Question: And the activation at 10 µM (A549-ACE2 cells)?
Answer: The activation at 10 µM was 63.7%.

Question: What about the activation at 10 µM (Vero-E6 cells; [2]) of the same compound?
Answer: Its activation at 10 µM is 58.9%.

Question: Which activation at 10 µM (A549-ACE2 cells) does the source give for Cc1nc2ccc(Oc3ccc(F)cc3)cc2c(=O)n1C[C@H]1CCCN(C(C)C)C1 [YIL-781] here?
Answer: Its activation at 10 µM is 52.7%.

Question: What about the activation at 10 µM (Vero-E6 cells; [2]) of the same compound?
Answer: Its activation at 10 µM is 56.3%.

Question: What does the source list for CCN(CC)CCOC(=O)C(c1ccccc1)C1CCCCC1 (stereo not shown) [DROFENINE HYDROCHLORIDE]?
Answer: pchembl_value (AC50) [1]: 6.66 and 7.47; activation at 10 µM (A549-ACE2 cells): 53.9%; activation at 10 µM (Vero-E6 cells; [2]): 52%

Question: Which IC50 ([1]; read-out: IC50 (value)) does the source give for Cn1ncc(Cl)c1-c1cc(C(=O)N[C@H](CN)Cc2ccc(F)c(F)c2)oc1Cl [Uprosertib] here?
Answer: The IC50 was 339 nM.

Question: What about the “pchembl_value (IC50)” value [1] of the same compound?
Answer: The value was 6.47.

Question: What about the activation at 10 µM (A549-ACE2 cells) of the same compound?
Answer: The activation at 10 µM was 92%.

Question: And the activation at 10 µM (Vero-E6 cells; [2])?
Answer: The activation at 10 µM was 82.6%.

Question: With CN(CCc1ccc(Cl)c(Cl)c1)CCN1CCCC1 [BD-1008] as the compound, how does the activation at 10 µM (A549-ACE2 cells) read?
Answer: Its activation at 10 µM is 62.5%.

Question: And the activation at 10 µM (Vero-E6 cells; [2])?
Answer: The activation at 10 µM was 51.3%.

Question: What does the source list for CN(C(=O)Cc1ccc(Cl)c(Cl)c1)[C@H](CN1CCCC1)c1ccccc1 [ICI-199441]?
Answer: IC50 ([1]; read-out: IC50 (value)): 26 nM; pchembl_value (IC50) [1]: 7.58; activation at 10 µM (A549-ACE2 cells): 99.8%; activation at 10 µM (Vero-E6 cells; [2]): 53.5%

Question: What does the source list for CNCC[C@H](Oc1cccc2ccccc12)c1cccs1 [DULOXETINE HYDROCHLORIDE]?
Answer: IC50 [1]: 440 nM; activation at 10 µM (A549-ACE2 cells): 91.5%; activation at 10 µM (Vero-E6 cells; [2]): 92.6%

Question: What does the source list for O[C@H]([C@H](O)[C@@H]1CO1)[C@H]1CO1 [VAL-083, reference compound]?
Answer: result_KI (A549-ACE2 cells): -10.5072 percent effect; result_ITMP (Vero-E6 cells): -1.6 percent effect

Question: Which activation at 10 µM (A549-ACE2 cells) does the source give for Clc1ccc2c(c1)N=C(N1CCNCC1)c1ccccc1N2 [desmethylclozapine] here?
Answer: The activation at 10 µM was 89.5%.

Question: What about the activation at 10 µM (Vero-E6 cells; [2]) of the same compound?
Answer: The activation at 10 µM was 77.7%.

Reference: publication PMC13083723 (Patterns, 2026)
